Data taken from patent US20110245179A1, “Composition for Prevention or Treatment of Heart Failure” (priority 2008, published 2011).

Experiments:
PKCβ = PKCβ (Homo sapiens, UniProt P05771); conditions: cited from earlier work
PKCδ = PKCδ (Homo sapiens, UniProt Q05655); conditions: cited from earlier work
PKCζ = biological target: T1, PKCζ (Homo sapiens, UniProt Q05513); conditions: cited from earlier work
T1 sequence (Q05513 1-592): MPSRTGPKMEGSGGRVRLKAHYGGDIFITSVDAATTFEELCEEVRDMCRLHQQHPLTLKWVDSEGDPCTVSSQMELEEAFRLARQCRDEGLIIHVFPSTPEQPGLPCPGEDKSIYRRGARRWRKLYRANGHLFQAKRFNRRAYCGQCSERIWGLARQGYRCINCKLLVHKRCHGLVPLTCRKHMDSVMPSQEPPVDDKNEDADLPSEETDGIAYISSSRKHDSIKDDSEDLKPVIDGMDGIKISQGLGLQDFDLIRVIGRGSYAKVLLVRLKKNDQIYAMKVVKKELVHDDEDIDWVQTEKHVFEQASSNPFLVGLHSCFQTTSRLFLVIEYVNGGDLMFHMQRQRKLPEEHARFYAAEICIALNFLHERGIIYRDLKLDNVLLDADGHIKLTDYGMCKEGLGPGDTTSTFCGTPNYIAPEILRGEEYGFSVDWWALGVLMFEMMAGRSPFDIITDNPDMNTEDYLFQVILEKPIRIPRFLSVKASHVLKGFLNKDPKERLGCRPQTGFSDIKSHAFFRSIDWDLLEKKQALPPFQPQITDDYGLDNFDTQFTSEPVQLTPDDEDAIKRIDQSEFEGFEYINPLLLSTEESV

cardiac myocytes = test: Measurement of myocardial contractility (video-based edge detection); format: cell-based, Sprague-Dawley (SD) rat; conditions: 100 nM for 30 minutes
Text: The sequence of a peptide inhibitor was designed based on the experiment of Daria Mochly-Rosen^11-13. The amino acid sequences of the protein kinase C ζ (PKCζ) inhibitor are described as SEQ ID NO: 1 and SEQ ID NO: 2. They are called the pseudosubstrate region. In contrast, the amino acid sequence of the PKCα inhibitor is QLVIAN. Each peptide inhibitor is linked at the amino-end with the TAT peptide YGRKKRRQRRR via the GGG bridge. As a normal group for comparison, a peptide comprising the TAT amino acid sequence was used. Cardiac myocytes isolated from 10-week-old Sprague-Dawley (SD) rat were used to test the efficiency of the peptide inhibitor. […]
The cardiac myocytes were isolated based on the modification of the Ren's method^14. 10-week-old male SD rats (250-300 g) were used for the experiment. After injecting heparin (50 unit), the test animal was anesthetized with isoflurane and the heart was taken out immediately. The heart was connected to a pump and Tyrode's buffer [137 mM NaCl, 5.4 mM KCl, 1 mM MgCl2, 10 mM glucose, 10 mM HEPES, 10 mM 2,3-butanedione monoxime and 5 mM taurine (Sigma), pH 7.4] at 37° C. was supplied through the coronary artery. After removing blood from the heart by pumping for 5 minutes, intercellular adhesion molecules were digested by perfusing enzyme solution [collagenase type B (0.35 U/mL, Roche), hyaluronidase (0.1 mg/mL, Sigma)] through the coronary artery. After sufficient digestion through perfusion for 20 minutes, the heart was stabilized and protected from the enzymes in 0.5% BSA solution. In all the experiments, only the rod-shaped, healthy cardiac myocytes with a distinct striation pattern were used.
The entire culture procedure was carried out in a class II flow hood. Culture dishes were precoated for 1 hour with 40 µg/mL mouse laminin (BD Biosciences) at room temperature. The isolated cardiac myocytes were cultured in Dulbecco's minimal essential medium (HyClone) containing 50 units/mL penicillin, 50 μg/mL streptomycin, 5 mM taurine, […] and […]. The cardiac myocytes were stabilized for 2 hours in a 5% CO2 incubator at 37° C., and then myocardial contractility was measured.
Myocardial contractility was measured using a video-based edge detection system (IonOptix; Milton, Mass.)^15. The cultured cardiac myocytes were placed on a over slip and observed under an inverted microscope (Nikon Eclipse TE-100F). To the cardiac myocytes, Tyrode's buffer (137 mM NaCl, 5.4 mM KCl, 1 mM MgCl2, 10 mM glucose and 10 mM HEPES, pH 7.4) was continuously supplied (at 37° C., at a rate of ˜1 mL/min). The cells were stimulated with a voltage of 30 V at 1 Hz. A STIM-AT stimulator/thermostat was used. […] The motion was recorded at every 8.3 ms. The recorded motion of the cardiac myocytes was analyzed with the soft-edge software (IonOptix).

Chain of PKCδ (Q05655 whole entry): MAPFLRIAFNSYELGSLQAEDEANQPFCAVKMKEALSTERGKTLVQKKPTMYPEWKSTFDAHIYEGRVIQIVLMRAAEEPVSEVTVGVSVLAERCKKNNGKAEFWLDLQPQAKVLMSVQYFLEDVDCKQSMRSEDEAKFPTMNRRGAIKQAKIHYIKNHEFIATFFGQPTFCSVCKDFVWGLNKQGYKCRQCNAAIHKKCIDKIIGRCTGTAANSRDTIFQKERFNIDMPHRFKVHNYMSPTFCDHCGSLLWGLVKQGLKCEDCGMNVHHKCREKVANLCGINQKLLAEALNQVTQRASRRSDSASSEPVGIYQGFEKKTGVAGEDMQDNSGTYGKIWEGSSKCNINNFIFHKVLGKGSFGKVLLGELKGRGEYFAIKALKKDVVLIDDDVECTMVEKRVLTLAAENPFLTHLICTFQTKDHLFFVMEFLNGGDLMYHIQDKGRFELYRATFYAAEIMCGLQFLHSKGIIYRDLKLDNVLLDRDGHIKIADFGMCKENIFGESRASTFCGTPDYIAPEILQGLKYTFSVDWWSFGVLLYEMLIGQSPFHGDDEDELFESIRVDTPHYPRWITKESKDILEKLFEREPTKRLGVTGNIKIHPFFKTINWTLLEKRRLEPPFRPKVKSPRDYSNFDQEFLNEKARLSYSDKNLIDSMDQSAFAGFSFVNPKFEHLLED
Chain of PKCβ (P05771 whole entry, species assumed): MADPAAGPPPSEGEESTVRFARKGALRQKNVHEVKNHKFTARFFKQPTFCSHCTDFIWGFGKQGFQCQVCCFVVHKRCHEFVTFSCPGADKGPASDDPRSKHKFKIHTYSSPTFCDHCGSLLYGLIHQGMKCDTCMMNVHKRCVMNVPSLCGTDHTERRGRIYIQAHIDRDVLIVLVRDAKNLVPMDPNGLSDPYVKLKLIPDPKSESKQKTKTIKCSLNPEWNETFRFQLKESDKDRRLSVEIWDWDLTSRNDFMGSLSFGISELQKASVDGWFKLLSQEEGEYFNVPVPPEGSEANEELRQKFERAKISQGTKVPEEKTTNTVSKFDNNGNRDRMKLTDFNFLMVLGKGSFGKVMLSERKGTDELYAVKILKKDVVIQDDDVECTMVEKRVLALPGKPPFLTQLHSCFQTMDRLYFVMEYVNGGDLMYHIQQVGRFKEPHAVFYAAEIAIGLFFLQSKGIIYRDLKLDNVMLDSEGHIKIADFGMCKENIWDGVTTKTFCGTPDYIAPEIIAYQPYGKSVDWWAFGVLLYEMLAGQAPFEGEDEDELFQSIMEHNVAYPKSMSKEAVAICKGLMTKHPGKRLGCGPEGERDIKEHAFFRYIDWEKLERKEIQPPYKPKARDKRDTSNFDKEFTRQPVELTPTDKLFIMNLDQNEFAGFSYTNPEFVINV

SMILES | IC50 (PKCβ) | IC50 (PKCδ) | increase of maximal rate of contraction (cardiac myocytes) | increase of maximal rate of relaxation (cardiac myocytes) | increased maximal myocardial contractility as compared to the normal group (cardiac myocytes) | other results
CCOC(=O)c1c(NC(C)=O)sc(/C(C)=N/O)c1-c1ccccc1 [Chemical Formula II, ethyl (5E)-2-acetylimino-5-[1-(hydroxyamino)ethylidene]-4-phenyl-thiophene-3-carboxylate] | > 100 µM | > 100 µM |  |  |  | 
CN1CCN(Cc2c3ccccc3cc3ccccc23)CC1 [Chemical Formula III, 1-(anthracen-9-ylmethyl)-4-methyl-piperazine] | 50 µM | > 100 µM |  |  |  | IC50 (PKCζ): 25 µM
CCOC(=O)c1c(NC(=S)N2CCN(S(C)(=O)=O)CC2)sc(C)c1-c1ccccc1 [Chemical Formula IV] |  |  |  |  |  | inhibitory effect relative to that of the compound of Chemical Formula II (PKCζ; tested at 100 μM): about 1.2 times
CN1CCN(c2cccc3[nH]c(-c4n[nH]c5cc(-c6ccc(N)cc6)ccc45)nc23)CC1 [Chemical Formula IX] |  |  | ≥ 2 times | ≥ 2 times | about 2.4 times | 
CN1CCN(c2cccc3[nH]c(-c4n[nH]c5cc(-c6ccc(CN)cc6)ccc45)nc23)CC1 [Chemical Formula X] |  |  | 1.2 times | 1.2 times | about 1.4 times | 
